Literature values in patent US11248001B2, “PCSK9 inhibitors and methods of use thereof” (ASTRAZENECA AB, priority 2019, dated 2022).

B1: evolocumab (antibody, chains of the INN, looked up, V domains shown)
VH: EVQLVQSGAEVKKPGASVKVSCKASGYTLTSYGISWVRQAPGQGLEWMGWVSFYNGNTNYAQKLQGRGTMTTDPSTSTAYMELRSLRSDDTAVYYCARGYGMDVWGQGTTVTVSS
VL: ESALTQPASVSGSPGQSITISCTGTSSDVGGYNSVSWYQQHPGKAPKLMIYEVSNRPSGVSNRFSGSKSGNTASLTISGLQAEDEADYYCNSYTSTSMVFGGGTKLTVL

Details: clinical trials, patients

Molecule	decrease in LDL levels
alirocumab	about 50%
B1	60-75%
